Counter-ions that a name gives are not always drawn. Like-named read-outs stand apart in the source and are kept apart here.

For data set [1], the system named is collagen induced platelet aggregation (platelet-rich rabbit plasma). In words: Collagen (40 μg/ml) induced platelet aggregation in vitro on platelet-rich plasma. The note with it: Oryctolagus cuniculus, 10 min. It counts as cell-based. Here is the method:
(§1) The inhibitory activity on platelet aggregation was determined for the same compounds in vitro on platelet-rich rabbit plasma prepared by collecting the blood in a plastic centrifuge tube containing enough 3.8% sodium citrate to give a concentration of 0.38 g/100 ml when mixed with the blood, and then centrifuging at 100 × g for 20 minutes.
(§2) 1 ml aliquots of the thus prepared plasma were placed in a Platelet Aggregation Meter connected to a potentiometric recorder and tested according to Born, Nature (London), 194, 927 (1962).
(§3) The plasma-test compound mixtures were incubated for 10 min. at 37° C before addition of the aggregating agents, that is, Adenosine Diphosphate (ADP) or collagen.
(§4) The curves were read following the method described by O'Brien et al., Thromb. Diath. Haemorrhag. 16, 751 (1966). Slope and maximum transmission were recorded and expressed as % change with respect to controls. In the case of collagen induced platelet aggregation, the delay time ("reaction time") in seconds from the addition of the aggregating agent to the inflection of the curve was also measured and expressed as % change as above. For comparison purposes, acetylsalicylic acid (ASA) was also tested in the same conditions as the test compounds.
(§5) Negative figures in slope and maximum transmission % changes indicate antiaggregating activity. Positive figures in delay time % changes indicate that the compound is effective in prolonging the reaction time in the collagen induced platelet aggregation test.

The test system of data set [2] is ADP induced platelet aggregation (platelet-rich rabbit plasma). In words: ADP (5 μg/ml) induced platelet aggregation in vitro on platelet-rich plasma. It counts as cell-based. To be noted: Oryctolagus cuniculus, 10 min. Here is the method: as §1, §2, §3, §4, §5
The nature of data set [3]: Acute toxicity determined as approximate LD50. The note with it: mouse, in vivo, ip; three groups of three "Swiss" mice. It counts as in vivo. Here is the method:
(§6) The acute toxicity of some of the compounds of formula (I) was determined as approximate LD50, according to the method described in Acta Pharmacol, et toxicol, 25, 345 (1967), on three groups of three "Swiss" mice.

The test system of another data set is "Swiss" mice. In words: Acute toxicity determined as approximate LD50. It counts as in vivo. To be noted: i.p.; three groups of three "Swiss" mice. The protocol: as §6
Where [4] appears, read: read-out: Maximum transmission, % change.

On to `CC(=O)Oc1ccccc1C(=O)O` [ASA, acetylsalicylic acid, reference compound], for which the inhibition at 1.25 µg/mL was 15.2% in data set [1] (setting [4]) and 22.1% in data set [1] (read-out: Slope, % change). Further, the inhibition at 100 µg/mL in data set [2] (setting [4]) stood at 13.2%; in data set [2] (read-out: Slope, % change), 17.4%.

As to `O=C(O)CSc1nc(-c2ccccc2)c(-c2ccccc2)o1` [Example 2, S-(4,5-DIPHENYLOXAZOL-2-yl)-MERCAPTOACETIC ACID], the LD50 (commonly the dose expected to kill half of the subjects tested) in data set [3] is roughly 220 mg/kg.

With `O=C(O)CSc1nc(-c2ccccc2)c(-c2ccccc2)o1` [Example 3, 2-DIMETHYLAMINOETHANOL SALT OF S-(4,5-DIPHENYLOXAZOL-2-YL)-MERCAPTOACETIC ACID], the “Approximate LD50” value in the data set with "Swiss" mice is on record as roughly 220 mg/kg. Moreover, the water solubility entry in “Solubility (qualitative)” is given as “water-soluble”.

With `O=C(O)CSc1nc(-c2ccccc2)c(-c2ccccc2)o1` [Example 4, METHYLAMINOETHANOL SALT OF S-(4,5-DIPHENYLOXAZOL-2-YL)-MERCAPTOACETIC ACID], in the data set on "Swiss" mice, the “Approximate LD50” value was roughly 220 mg/kg.

As to `CN(C)CCOC(=O)CSc1nc(-c2ccccc2)c(-c2ccccc2)o1` [Example 5, 2-DIMETHYL[…]-(4,5-DIPHENYLOXAZOL-2-YL)-MERCAPTOACETATE], the inhibition at 1.25 µg/mL in data set [1] (setting [4]) was found to be 67.7%; in data set [1] (read-out: Slope, % change), 72.5%. The molecule further gave an LD50 in data set [3] of roughly 220 mg/kg. Also, the inhibition at 100 µg/mL was 45.2% in data set [2] (setting [4]) and 47.2% in data set [2] (read-out: Slope, % change). Moreover, the water solubility result in the data set “Solubility (qualitative)” is on record as “water soluble”.

With `NC(=O)CSc1nc(-c2ccccc2)c(-c2ccccc2)o1` [Example 9, S-(4,5-DIPHENYLOXAZOL-2-YL)-MERCAPTOACETAMIDE], the inhibition at 1.25 µg/mL in data set [1] (collagen 40 μg/ml, compound 1.25 μg/ml, 10 min incubation at 37° C, change with respect to controls, negative = antiaggregating, read-out: Maximum transmission, % change) was found to be 12.3%; in data set [1] (collagen 40 μg/ml, compound 1.25 μg/ml, 10 min incubation at 37° C, change with respect to controls, negative = antiaggregating, read-out: Slope, % change) it was 18.4%. This molecule had a 50% lethal dose (LD50) in data set [3] of roughly 1200 mg/kg. The inhibition at 100 µg/mL in data set [2] (ADP 5 μg/ml, compound 100 μg/ml, 10 min incubation at 37° C, change with respect to controls, negative = antiaggregating, read-out: Maximum transmission, % change) came to 6.6%; in data set [2] (ADP 5 μg/ml, compound 100 μg/ml, 10 min incubation at 37° C, change with respect to controls, negative = antiaggregating, read-out: Slope, % change), 7.1%.

The values above are taken from patent publication US4001228A, “2-Thiol-4,5-diphenyloxazole S-derivatives” (Serono Laboratories, Inc., priority 1974, dated 1977).
